Drawing on patent publication US9403832B2, “Pyrazolo[1,5-a]pyrimidine-based compounds, compositions comprising them, and methods of their use” (Lexicon Pharmaceuticals, Inc., priority 2012, dated 2016), this text covers melting point and IC50 for 11 molecules.

Data set [1] addresses T1, AAK1 (Homo sapiens, UniProt Q2M2I8).
T1 construct: NP_055726.2
In words: P81 filter plate assay. The note with it: full-length human AAK1, Mu2 substrate, 33P-ATP. The format is biochemical. Summed up: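 Full-length human AAK1 (0.2 nM, 2×) was pre-incubated 10 min at RT with compounds (top concentration 96 μM in the dilution plate), then reacted 1 h at RT with full-length human Mu2 (0.2 μM, 2×), cold ATP (2 μM, 2×) and ³³P-ATP. Reactions were stopped with phosphoric acid and captured on P81 filters for scintillation counting.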

The target of data set [2] is T1, AAK1. Briefly: HEK281 cell-based assay (CBA). The note with it: HEK293F cells transfected with full length human AAK1 and AP2M1; phospho-mu2 Western blot; 3 hours incubation. An outline of the steps:
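HEK293F cells co-transfected with full-length human AAK1/HA and Flag-AP2M1 (mu2), then treated in suspension with compounds (5 concentrations, 3-fold steps) in DMEM+0.5% FBS for 3 hours at 37° C. Phospho-mu2 and total mu2 (anti-Flag) assessed by Western blot.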
For orientation: In western blotting, separated proteins are transferred to a membrane and probed.

T1 sequence (Q2M2I8 1-863 isoform Q2M2I8-2): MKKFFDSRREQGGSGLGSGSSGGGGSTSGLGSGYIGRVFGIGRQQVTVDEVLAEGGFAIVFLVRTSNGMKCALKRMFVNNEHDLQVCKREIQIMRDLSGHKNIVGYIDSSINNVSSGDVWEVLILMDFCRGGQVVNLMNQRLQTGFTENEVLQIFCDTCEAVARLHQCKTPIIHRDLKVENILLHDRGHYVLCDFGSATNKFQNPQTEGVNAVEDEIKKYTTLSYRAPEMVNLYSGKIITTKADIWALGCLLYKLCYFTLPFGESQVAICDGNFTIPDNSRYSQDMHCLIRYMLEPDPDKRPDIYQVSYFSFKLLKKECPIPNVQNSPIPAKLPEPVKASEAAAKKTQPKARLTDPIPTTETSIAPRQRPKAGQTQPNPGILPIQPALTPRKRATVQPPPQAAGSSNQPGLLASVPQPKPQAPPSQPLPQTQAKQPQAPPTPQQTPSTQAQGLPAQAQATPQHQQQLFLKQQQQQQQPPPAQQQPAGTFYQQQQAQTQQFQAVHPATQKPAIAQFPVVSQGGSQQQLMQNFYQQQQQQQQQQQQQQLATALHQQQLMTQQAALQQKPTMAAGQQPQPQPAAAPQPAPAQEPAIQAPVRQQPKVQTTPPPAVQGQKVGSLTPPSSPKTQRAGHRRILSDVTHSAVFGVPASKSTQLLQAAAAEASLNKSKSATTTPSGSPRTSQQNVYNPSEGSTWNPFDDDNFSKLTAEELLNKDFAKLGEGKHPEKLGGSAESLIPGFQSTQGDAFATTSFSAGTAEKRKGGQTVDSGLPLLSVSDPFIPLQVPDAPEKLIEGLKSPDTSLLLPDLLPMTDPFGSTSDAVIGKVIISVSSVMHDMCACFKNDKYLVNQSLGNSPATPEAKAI

Broadly, the melting point is the temperature of the solid-liquid transition. Consider `CN(CCNc1ccn2ncc(-c3cccs3)c2n1)C(=O)OC(C)(C)C` [Example 5.6.4, Methyl-[2-(3-thiophen-2-yl-pyrazolo[1,5-a]pyrimidin-5-ylamino)-ethyl]-carbamic acid tert-butyl ester], for which the melting point lay in the range of 140 to 141 °C. A word on the IC50: it is the point on the concentration scale where inhibition reaches its midpoint. Low readings indicate inhibition by little substance, high ones a need for much substance. On to `CC(C)(C)OC(=O)N1CCC[C@H]1CNc1ccn2ncc(-c3ccc(CN)cc3)c2n1` [(S)-tert-butyl 2-(((3-(4-(aminomethyl)phenyl)pyrazolo[1,5-a]pyrimidin-5-yl)amino)methyl)pyrrolidine-1-carboxylate], for which the IC50 on AAK1 [1] and against AAK1 [2] was at most 10 nM each time. In the case of `CN[C@H](C(=O)N1CCN(c2ccn3ncc(-c4cccnc4OC)c3n2)CC1)C(C)(C)C` [(S)-1-(4-(3-(2-methoxypyridin-3-yl)pyrazolo[1,5-a]pyrimidin-5-yl)piperazin-1-yl)-3,3-dimethyl-2-(methylamino)butan-1-one], the IC50 was at most 10 nM against AAK1 [1] and at most 100 nM at AAK1 [2].

With `COc1cccc(-c2cnn3ccc(N4CCN(C(=O)OC(C)C)CC4)nc23)n1` [isopropyl 4-(3-(6-methoxypyridin-2-yl)pyrazolo[1,5-a]pyrimidin-5-yl)piperazine-1-carboxylate], the IC50 was at most 10 nM against AAK1 [1] and at most 100 nM against AAK1 [2]. As to `[2H]C1([2H])N(C(=O)OCCOC)C([2H])([2H])C([2H])([2H])N(c2ccn3ncc(-c4cccnc4OC)c3n2)C1([2H])[2H]` [2-methoxyethyl 4-(3-(2-methoxypyridin-3-yl)pyrazolo[1,5-a]pyrimidin-5-yl)-d8-piperazine-1-carboxylate], the IC50 is at most 10 nM against AAK1 [1] and at most 100 nM against AAK1 [2].

For `COc1ccc(F)cc1-c1cnn2ccc(N3CCN(C(=O)O[C@@H]4CCOC4)CC3)nc12` [(R)-tetrahydrofuran-3-yl 4-(3-(5-fluoro-2-methoxyphenyl)pyrazolo[1,5-a]pyrimidin-5-yl)piperazine-1-carboxylate], the IC50 against AAK1 [1] and at AAK1 [2] was at most 10 nM in each case. For `CC(C)OC(=O)N1CCN(c2ccn3ncc(-c4ccc(OCCN)cc4)c3n2)CC1` [isopropyl 4-(3-(4-(2-aminoethoxy)phenyl)pyrazolo[1,5-a]pyrimidin-5-yl)piperazine-1-carboxylate], the IC50 is at most 10 nM at AAK1 [1] and at most 100 nM on AAK1 [2].

For the molecule `COC[C@H](N)C(=O)N1CCN(c2ccn3ncc(-c4cccnc4OC)c3n2)CC1` [(S)-2-amino-3-methoxy-1-(4-(3-(2-methoxypyridin-3-yl)pyrazolo[1,5-a]pyrimidin-5-yl)piperazin-1-yl)propan-1-one], the IC50 against AAK1 [1] and at AAK1 [2] was at most 10 nM each time. Take `[2H]C([2H])([2H])Oc1ncccc1-c1cnn2ccc(N3CCN(C(=O)OC(C)(C)C)CC3)nc12` [tert-butyl 4-(3-(2-d3-methoxypyridin-3-yl)pyrazolo[1,5-a]pyrimidin-5-yl)piperazine-1-carboxylate]: the IC50 on AAK1 [1] and against AAK1 [2] was at most 10 nM in each case. Turning to `COc1cc(C)c(F)cc1-c1cnn2ccc(N3CCN(C(=O)OC(C)C)CC3)nc12` [isopropyl 4-(3-(5-fluoro-2-methoxy-4-methylphenyl)pyrazolo[1,5-a]pyrimidin-5-yl)piperazine-1-carboxylate], the IC50 against AAK1 [1] and against AAK1 [2] was at most 10 nM in each case. Turning to `COc1ncccc1-c1cnn2ccc(NC[C@@H]3CCCN3C(=O)OC(C)C)nc12` [(S)-isopropyl 2-(((3-(2-methoxypyridin-3-yl)pyrazolo[1,5-a]pyrimidin-5-yl)amino)methyl)pyrrolidine-1-carboxylate], the IC50 against AAK1 [1] and at AAK1 [2] was at most 10 nM throughout.
